Experiments:
Assay type in all cases: in vivo, C57 mice
[1] = system: inflammatory cells in bronchoalveolar lavage fluid; assay: Inflammatory cell assay of bronchoalveolar lavage fluid, 7-d modeling
Procedure: (§1) Animals of 7-d modeling were randomly divided into 7 groups according to the table below, 6 animals per control group and 12 animals per test group.
(§2) Drug administration began 24 h or 7 d after modeling. […] The day of the first administration was counted as D1, the next day as D2, and so forth. The normal groups and Model groups were given 200 µL of normal saline daily by gavage administration.
After the mouse was fixed, its trachea and chest cavity were exposed, and the trachea and the esophagus were bluntly separated with an ophthalmic curved forceps. Two sutures were made between the trachea and the esophagus. An intravenous trocar was inserted into the trachea and ligated at the site where it entered the trachea and at its distal end. A 1 mL syringe was connected to draw in 1 mL of pre-cooled PBS and infuse it into the lung tissue. Significant filling in the lung could be seen with the naked eye. The syringe was held for 10 s and withdrawal was performed. The infusion/withdrawal cycle was repeated 3 times. The withdrawn BALF was transferred to a clean EP tube and centrifuged at 4° C., and the supernatant was collected and preserved at -80° C. The cells were subjected to routine tests.
Upon the end of the administration, the leukocytes (lymphocytes, neutrophils and monocytes) in the bronchoalveolar lavage fluids of the mice in the 7-d modeling groups were classified and counted.

[2] = system: bleomycin-induced mouse lung disease model; assay: Assay of lung tissues for hydroxyproline content, 24-h modeling; conditions: day 35 of administration
Procedure: Animals of 24-h modeling were randomly divided into 5 groups according to the table below, 3 animals per control group and 5 animals per test group.
as §2
[…] 2 mL of pre-cooled normal saline was added. The tissues were cut into as many pieces as possible and centrifuged at 2000 rpm/min for 2 min, and the supernatant was discarded. • 2. To the precipitate was added 1 mL of RIPA lysis buffer (mixed protease inhibitor Cocktail was added in a ratio of 1:100 before use, and the resulting mixture was preserved on ice). […]
(II) Protein concentration assay by BCA • 1. […] A proper BCA working solution was freshly prepared according to the quantity of the standard substance and samples. […] The plate was incubated at 37° C. for 30 min, and the absorbance at 570 nm was measured on a microplate reader. The sample protein concentration was calculated from the standard curve.
(III) HYP level assay • 1. […] To each well was added 50 µL of terminating solution, and the absorbance was immediately measured at a wavelength of 450 nm. […]

[3] = Body weight, bleomycin-induced mice, 7-d modeling; conditions: for Body weight decreased by: day 1 to day 28
Procedure: as §1, §2
All the animals were observed once daily during the experiment for death or dying, feces, ingestion, mental state and behavior and activity. Abnormalities were recorded in time. All the animals were weighed once before grouping and once before each dose.
In this experiment, 105 C57 mice were randomly selected and subjected to organ drip administration of a single dose of bleomycin at 2.5 mg/kg for 24 h or 7 d for induction. After 7 days of induction, 3 model mice were randomly selected and dissected to determine whether the modeling was successful. After modeling, the survival of the mice was recorded. The living states of the mice were observed and their body weight was measured at a fixed time.
A normal control group comprised 6 mice.

[4] = Dex 1-1.5 mg/kg i.p. every two days

SMILES: O=c1c2ccccc2[se]n1CCCCn1[se]c2ccccc2c1=O [BS, 1,4-[bis(1,2-benzisoselenazol-3(2H)-one)]butane]
- Effect on pulmonary inflammation (in words) ([1]; BS 180 mg/kg, better than Dex (1-1.5 mg/kg)): significantly ameliorate pulmonary inflammation
- Absolute leukocyte count in bronchoalveolar lavage fluid ([1]; BSH: BS 180 mg/kg gavage daily): 0.43±0.04 10^9/L
- Absolute lymphocyte count in bronchoalveolar lavage fluid ([1]; BSH: BS 180 mg/kg gavage daily): 0.34±0.03 10^9/L
- Absolute monocyte count in bronchoalveolar lavage fluid ([1]; BSH: BS 180 mg/kg gavage daily): 0.02±0.00 10^9/L
- Absolute neutrophil count in bronchoalveolar lavage fluid ([1]; BSH: BS 180 mg/kg gavage daily): 0.02±0.01 10^9/L
- Percent reduction in leukocytes in bronchoalveolar lavage fluid with respect to the Model group ([1]; BSH: BS 180 mg/kg gavage daily): 58.39%
- Percent reduction in lymphocytes in bronchoalveolar lavage fluid with respect to the Model group ([1]; BSH: BS 180 mg/kg gavage daily): 60.73%
- Percent reduction in monocytes in bronchoalveolar lavage fluid with respect to the Model group ([1]; BSH: BS 180 mg/kg gavage daily): 57.14%
- Percent reduction in neutrophils in bronchoalveolar lavage fluid with respect to the Model group ([1]; BSH: BS 180 mg/kg gavage daily): 74.07%
- Absolute leukocyte count in bronchoalveolar lavage fluid ([1]; BSL: BS 36 mg/kg gavage daily): 0.87±0.04 10^9/L
- Absolute lymphocyte count in bronchoalveolar lavage fluid ([1]; BSL: BS 36 mg/kg gavage daily): 0.70±0.03 10^9/L
- Absolute monocyte count in bronchoalveolar lavage fluid ([1]; BSL: BS 36 mg/kg gavage daily): 0.04±0.01 10^9/L
- Absolute neutrophil count in bronchoalveolar lavage fluid ([1]; BSL: BS 36 mg/kg gavage daily): 0.08±0.01 10^9/L
- Percent reduction in leukocytes in bronchoalveolar lavage fluid with respect to the Model group ([1]; BSL: BS 36 mg/kg gavage daily): 16.29%
- Percent reduction in lymphocytes in bronchoalveolar lavage fluid with respect to the Model group ([1]; BSL: BS 36 mg/kg gavage daily): 19.54%
- Percent reduction in monocytes in bronchoalveolar lavage fluid with respect to the Model group ([1]; BSL: BS 36 mg/kg gavage daily): 25.00%
- Percent reduction in neutrophils in bronchoalveolar lavage fluid with respect to the Model group ([1]; BSL: BS 36 mg/kg gavage daily): 7.41%
- Absolute leukocyte count in bronchoalveolar lavage fluid ([1]; BSM: BS 90 mg/kg gavage daily): 0.69±0.06 10^9/L
- Absolute lymphocyte count in bronchoalveolar lavage fluid ([1]; BSM: BS 90 mg/kg gavage daily): 0.56±0.05 10^9/L
- Absolute monocyte count in bronchoalveolar lavage fluid ([1]; BSM: BS 90 mg/kg gavage daily): 00.3±0.01 10^9/L
- Absolute neutrophil count in bronchoalveolar lavage fluid ([1]; BSM: BS 90 mg/kg gavage daily): 0.08±0.01 10^9/L
- Percent reduction in leukocytes in bronchoalveolar lavage fluid with respect to the Model group ([1]; BSM: BS 90 mg/kg gavage daily): 32.90%
- Percent reduction in lymphocytes in bronchoalveolar lavage fluid with respect to the Model group ([1]; BSM: BS 90 mg/kg gavage daily): 35.63%
- Percent reduction in monocytes in bronchoalveolar lavage fluid with respect to the Model group ([1]; BSM: BS 90 mg/kg gavage daily): 42.86%
- Percent reduction in neutrophils in bronchoalveolar lavage fluid with respect to the Model group ([1]; BSM: BS 90 mg/kg gavage daily): 16.67%
- HY7P, hydroxyproline content in the lungs ([2]; BS 90 mg/kg gavage daily): 2.17 ± 0.19 µg/mL
- Body weight ([3]; BSH: BS 180 mg/kg gavage daily, D1): 19.88 ± 0.47 g
- Body weight ([3]; BSH: BS 180 mg/kg gavage daily, D7): 19.45 ± 0.62 g
- Body weight ([3]; BSH: BS 180 mg/kg gavage daily, D14): 19.26 ± 0.44 g
- Body weight ([3]; BSH: BS 180 mg/kg gavage daily, D21): 19.13 ± 0.54 g
- Body weight ([3]; BSH: BS 180 mg/kg gavage daily, D28): 19.19 ± 0.71 g
- Body weight decreased by ([3]; BSH: BS 180 mg/kg gavage daily): 3.62%
- Body weight ([3]; BSL: BS 36 mg/kg gavage daily, D1): 17.80 ± 0.72 g
- Body weight ([3]; BSL: BS 36 mg/kg gavage daily, D7): 17.49 ± 0.84 g
- Body weight ([3]; BSL: BS 36 mg/kg gavage daily, D14): 17.37 ± 0.80 g
- Body weight ([3]; BSL: BS 36 mg/kg gavage daily, D21): 17.23 ± 0.76 g
- Body weight ([3]; BSL: BS 36 mg/kg gavage daily, D28): 17.23 ± 0.82 g
- Body weight decreased by ([3]; BSL: BS 36 mg/kg gavage daily): 3.39%
- Body weight ([3]; BSM: BS 90 mg/kg gavage daily, D1): 18.20 ± 0.87 g
- Body weight ([3]; BSM: BS 90 mg/kg gavage daily, D7): 17.89 ± 0.92 g
- Body weight ([3]; BSM: BS 90 mg/kg gavage daily, D14): 17.63 ± 0.79 g
- Body weight ([3]; BSM: BS 90 mg/kg gavage daily, D21): 17.46 ± 0.73 g
- Body weight ([3]; BSM: BS 90 mg/kg gavage daily, D28): 17.41 ± 0.72 g
- Body weight decreased by ([3]; BSM: BS 90 mg/kg gavage daily): 4.53%

SMILES: C[C@@H]1C[C@H]2[C@@H]3CCC4=CC(=O)C=C[C@]4(C)[C@@]3(F)[C@@H](O)C[C@]2(C)[C@@]1(O)C(=O)CO [Dex, dexamethasone, reference compound]
- Absolute leukocyte count in bronchoalveolar lavage fluid [1, 4]: 0.57±0.02 10^9/L
- Absolute lymphocyte count in bronchoalveolar lavage fluid [1, 4]: 0.46±0.03 10^9/L
- Absolute monocyte count in bronchoalveolar lavage fluid [1, 4]: 0.03±0.01 10^9/L
- Absolute neutrophil count in bronchoalveolar lavage fluid [1, 4]: 0.0±0.01 10^9/L
- Percent reduction in leukocytes in bronchoalveolar lavage fluid with respect to the Model group [1, 4]: 45.32%
- Percent reduction in lymphocytes in bronchoalveolar lavage fluid with respect to the Model group [1, 4]: 47.51%
- Percent reduction in monocytes in bronchoalveolar lavage fluid with respect to the Model group [1, 4]: 46.43%
- Percent reduction in neutrophils in bronchoalveolar lavage fluid with respect to the Model group [1, 4]: 68.52%
- HY7P, hydroxyproline content in the lungs [2, 4]: 2.25 ± 0.31 µg/mL
- Body weight ([3]; Dex 1-1.5 mg/kg i.p. every two days, D1): 17.79 ± 0.89 g
- Body weight ([3]; Dex 1-1.5 mg/kg i.p. every two days, D7): 17.61 ± 1.02 g
- Body weight ([3]; Dex 1-1.5 mg/kg i.p. every two days, D14): 17.45 ± 0.96 g
- Body weight ([3]; Dex 1-1.5 mg/kg i.p. every two days, D21): 17.43 ± 0.92 g
- Body weight ([3]; Dex 1-1.5 mg/kg i.p. every two days, D28): 17.38 ± 0.85 g
- Body weight decreased by [3, 4]: 2.42%

Source: patent US20230210819A1, “USE OF BENZISOSELAZOLE DERIVATIVE FOR ANTI-CORONAVIRUS AND CONTROL OF INTERSTITIAL LUNG DISEASE (ILD) RELATED TO CORONAVIRUS” (SHANGHAI YUANXI MEDICINE CORP., priority 2020, published 2023)
